Experimental data taken from article PMC10889512, “Pyrimidine Schiff Bases: Synthesis, Structural Characterization and Recent Studies on Biological Activities” (International Journal of Molecular Sciences, 2024).

Test system: A. baumannii 19606
Assay: Antimicrobial activity assay, microdilution
Type: cell-based, Acinetobacter baumannii
Conditions: concentration range from 0.5 µg/mL to 256 µg/mL
Protocol: In vitro antimicrobial and antifungal activity was screened using microdilution and modified Richard’s medium. The assay was performed for compounds 4a, 4b, 4c, and 4d with seven reference microbial strains from ATTC (E. coli 25922, S. aureus 43300, K. pneumoniae 700603, A. baumannii 19606, P. aeruginosa 27853, E. faecalis 29212, and C. albicans 10231).
Seven reference strains from the ATCC collection (Escherichia coli 25922, Staphylococcus aureus 43300, Klebsiella pneumoniae 13883, Acinetobacter baumannii 19606, Pseudomonas aeruginosa 27853, Enterococcus faecalis 29212, and Candida albicans 10231) were used. The assay was performed according to a modified version of Richard et al.’s protocol and ISO standards 20776-1:2019 and 16256:2021 [78, 79]. Microdilution with spectrophotometric measurement was used to calculate MIC50 (minimal inhibitory concentration which decreased the microorganisms’ viability to 50%) values. Briefly, compounds were prepared 100× concentrated in DMSO, and during the whole experiment, they were diluted to 1× with TSB. Serial dilutions of tested compounds were made directly on plates at a concentration range of 0.5 to 256 µg/mL. Microorganisms were incubated for 24 h at 37 °C (bacteria) or 25 °C (yeast) on Petri dishes with TSA. The bacteria/yeast suspensions were prepared at a density 5 × 10^5 CFU/mL (for bacteria) or 0.5–2.5 × 10^5 CFU/mL (for yeast) with TSB. Also, appropriate controls were contained in the experiment: the positive control consisted of a specific strain in TSB, and the negative control was TSB alone. To ensure that used strains were not modified and were still responding to antibacterial/antifungal compounds established by EUCAST, additional tests were conducted with levofloxacin, gentamicin, and amphotericin B. Microplates were incubated on a shaker for 24 h at 37 ± 1 °C or 25 ± 1 °C for the bacteria and yeast strains, respectively. After the incubation, spectrophotometric measurement was performed at 580 nm. MIC50 was calculated by comparing the results obtained for experimental sets with positive controls. Next, 50 µL aliquots of 1% (m/v) TTC solution were added to each well. The plates were incubated on the shaker for 24 h at 37/25 °C. In living microbial cells, colourless TTC is converted into red formazan crystals, which allows for visual observation and MBC/MFC (minimal bactericidal/fungicidal concentration) value assessment.

In the case of `Cc1nc(-c2ccccc2)nc(Nc2ccc(F)cc2)c1C=Nc1cccc(Cl)c1` [compound 4b, 5-{[(3-chlorophenyl)imino]methyl}-N-(4-fluorophenyl)-6-methyl-2-phenylpyrimidin-4-amine], the “MIC and MBC/MFC activity” value is reported as “Neither MIC nor MBC/MFC activity was observed”.
